Laboratory results from ChEMBL document CHEMBL4665646, “Mass Spectrometry-based Label-free Quantitative Proteomics To Study the Effect of 3PO Drug at Cellular Level” (2019).
Active and inactive are the calls of the source. No cut-off for these calls is given here.

Experiments:
EA.hy 926 [1] = experiment: Cytotoxicity against human EA.hy 926 cells assessed as inhibition of cell proliferation at 20 uM after 24 hrs by MTT assay; type: functional, cell-based
EA.hy 926 [2] = experiment: (§1) Antiinflammatory activity in TNFalpha-induced human EA.hy 926 cells assessed as decrease in SOD-2 expression by measuring log2 fold change at 20 uM pretreated with compound for 1 hr followed by TNFalpha challenge and further incubated for 24 hrs by SYBR-green based qRT-PCR analysis (reference value: 2.69); type: functional; settings: time 25 hrs
EA.hy 926 [3] = experiment: Antiinflammatory activity in TNFalpha-induced human EA.hy 926 cells assessed as decrease in […] expression at 20 uM pretreated with compound for 1 hr followed by TNFalpha challenge and further incubated for 24 hrs by SYBR-green based qRT-PCR analysis; type: functional, cell-based; settings: time 25.0 hrs
EA.hy 926 [4] = experiment: Antiinflammatory activity in TNFalpha-induced human EA.hy 926 cells assessed as decrease in IL1B expression at 20 uM pretreated with compound for 1 hr followed by TNFalpha challenge and further incubated for 24 hrs by SYBR-green based qRT-PCR analysis; type: functional, cell-based; settings: time 25.0 hrs
EA.hy 926 [5] = experiment: Antiinflammatory activity in TNFalpha-induced human EA.hy 926 cells assessed as decrease in ICAM-1 expression by measuring log2 fold change at 20 uM pretreated with compound for 1 hr followed by TNFalpha challenge and further incubated for 24 hrs by SYBR-green based qRT-PCR analysis; type: functional; settings: time 25 hrs
EA.hy 926 [6] = experiment: Antiinflammatory activity in TNFalpha-induced human EA.hy 926 cells assessed as decrease in IL8 expression at 20 uM pretreated with compound for 1 hr followed by TNFalpha challenge and further incubated for 24 hrs by SYBR-green based qRT-PCR analysis; type: functional, cell-based; settings: time 25.0 hrs
EA.hy 926 [7] = experiment: as §1, with “HLA-A” for “SOD-2”, “1.56)” for “2.69)”; type: functional; settings: time 25 hrs

In the case of `O=C(/C=C/c1cccnc1)c1ccncc1`, the inhibition (EA.hy 926 [1]) is reported as “Active”, the log2FC (EA.hy 926 [2]) is reported as -0.53 and the Activity (EA.hy 926 [3]) is reported as “Active”. The Activity (EA.hy 926 [4]) was “Active”, the log2FC (EA.hy 926 [5]) was -0.47 and the Activity (EA.hy 926 [6]) was “Active”. For the same compound, the log2FC (EA.hy 926 [7]) was -0.75.
